≈ marks a conversion by molar mass, not a printed value.
What was measured:
[1] = system: Gram-negative bacteria (E. coli to A. caviae); assay: Antibacterial activity in TSB rich medium (MIC), Gram-negative bacteria; assay type: cell-based; conditions: 48 hours, at the concentrations tested (0.78-100 μM)
Experimental: The tests were carried out on Gram-negative bacterial strains: Escherichia coli ATCC 25922, Salmonella enterica ATCC 13076, Pseudomonas aeruginosa ATCC 27853, Klebsiella oxytoca CIP 7932, Enterobacter aerogenes ATCC 13048 and Aeromonas caviae ATCC 15468 and on Gram-positive strains: Staphylococcus aureus ATCC 25923, Enterococcus faecalis CIP 186, Streptococcus equinus ATCC 5623, Listeria monocytogenes SOR 100, Bacillus megaterium ATCC 10778, Lactococcus gaviae ATCC 43921, Micrococcus luteus ATCC 10240.
The bacteria (10^5 CFU/mL) are incubated in a TSB (Tryptic Soy Broth) rich medium with increasing concentrations of cyclopseudopeptides (0.78, 3.12, 6.25, 12.5, 25, 50, 100 μM). This test is carried out in 96-well microplates. After incubation for 48 hours at 20° C. or 37° C., the optical density of the microplates is read at 595 nm in order to evaluate the bacterial growth and determine the minimum inhibitory concentration (MIC) for each molecule tested. Each measurement is carried out in triplicate.

rabbit erythrocytes [2] = conditions: comparison peptide alternating L and D amino acids; cited from earlier work
Streptococcus aureus = assay: Antibacterial activity in poor medium enriched with beef extract PBB (MIC, MBC); assay type: cell-based; conditions: increasing doses (FIG. 3)
Experimental: (§1) The tests were carried out on Gram-negative bacterial strains of Group 2 (pathogens): Escherichia coli, Salmonella thyphimurium, Pseudomonas aeruginosa, Klebsiella pneumonie and on Gram-positive strains: Bacillus megaterium (group 1) and […] (group 2).
(§2) The bacteria are incubated in a PB poor medium in the case of the bacteria: Escherichia coli, Pseudomonas aeruginosa, Klebsiella pneumoniae, Bacillus megaterium and in a poor medium enriched with beef extract PBB in the case of two other bacteria: […] and Salmonella thyphimurium with increasing concentrations of peptides or analogues ranging from 1 to 320 μg/ml. This test is carried out in 96-well microplates. After incubation for 18 hours at 30° C. or 37° C., the optical density of the microplates is read at 595 nm in order to evaluate the bacterial growth and determine the minimum inhibitory concentration (MIC) for each molecule tested. Each measurement is performed in triplicate.
(§3) Moreover, the minimum bactericidal concentration (MBC) is determined by plating the contents of the wells where there is an absence of bacterial growth on dishes containing rich media (Luria broth or (LB) or Brain Heart Infusion (BHi). The MBC corresponds to the concentration at which no bacterial colony is detected after incubation for 24 hours at 30 or 37° C.

Salmonella thyphimurium = assay: Antibacterial activity in poor medium enriched with beef extract PBB; assay type: cell-based; conditions: increasing doses (FIG. 4)
Experimental: as §1, §2, §3

[3] = In vitro cytotoxicity (MTT); assay type: cell-based, hamster; conditions: hamster, CHO-K1 cells; read-out: lethal dose for 50% of the cells (LD50)
Experimental: (§4) The effects of the different cyclic pseudopeptides on cell growth are evaluated in sterile 96-well plates. The cells are seeded at 5.10^5 cells per mL of culture medium (100 μL per well). The different pseudopeptides (10 μL per well) diluted in a saline solution are added at the time of seeding at the appropriate concentration (from 1 μg/mL to 1 mg/mL). The incubations are carried out at 37° C. under a humidified atmosphere containing 5% CO2 for 24 or 48 hours.
(§5) After exposure to the compounds, the cell growth is assessed by measuring the formation of formazan from 3-(4,5-dimethylthiazol-2-yl)-2,5-diphenyltetrazolium (MTT). The absorbance at 540 nm is measured by a Titertek Multiscan MCC/340 microplate reader. Each measurement is carried out in triplicate.

hamster cells (CHO-K1) = assay: In vitro cytotoxicity (MTT); assay type: cell-based; conditions: at 10 μg/mL
Experimental: as §4, §5

[4] = system: mouse cell line ascites 302-sp; assay: In vitro cytotoxicity (MTT); assay type: cell-based
Experimental: as §4, §5

rabbit erythrocytes [5] = assay: Haemolytic activity on rabbit erythrocytes; assay type: cell-based
Experimental: The haemolytic activity of the pseudopeptides is tested on rabbit blood cells. Fresh rabbit erythrocytes are washed three times with a phosphate buffer saline [PBS buffer (pH 7.4)] by centrifugation for 5 min at 900 g and the final pellet is suspended in PBS. The NafNaf pseudopeptide solutions diluted in PBS (90 μL) are arranged in a 96-well plate. 90 μL of 2% rabbit erythrocyte solution (v/v) is added to these solutions to give a final volume of 180 μL and a concentration of 1% (v/v) blood cells. The suspensions obtained are incubated for 1 hour at 37° C. The samples are then centrifuged at 500 g for 5 min. 100 μL of supernatant of each sample is transferred into a new 96-well plate. The release of the haemoglobin is quantified by measuring the absorbance at 415 nm of the supernatant using a microplate reader. The controls corresponding to the absence of haemolysis (white) and to a 100% haemolysis consist, respectively, of the addition of 90 μL of PBS buffer and 90 μL of a 2% solution of Triton X-100 to the 90 μL of 2% blood cell solution. Each measurement is carried out in triplicate.

sheep erythrocytes = assay: Haemolytic activity on sheep erythrocytes; assay type: cell-based; conditions: at the doses tested, 1 hour at 37° C.
Experimental: The haemolytic activity of the pseudopeptides is tested on sheep blood cells. The sheep erythrocytes are washed three times with a phosphate buffer saline [PBS buffer (pH 7.4)] by 5 minutes' centrifugation at 900 g and the final pellet is suspended in PBS. For the concentration of the erythrocyte solution, a concentration of erythrocytes corresponding to OD540 nm is established, and for the control well 100% haemolysis in the presence of 0.8 Triton X-100. The solutions of the different pseudopeptides diluted in water (100 μL) are arranged in a 96-well plate. 50 μL, of PBS 2× buffer solution then 50 μL of sheep erythrocyte solution is added to these solutions in order to produce a final volume of 200 μL. The suspensions obtained are incubated for 1 hour at 37° C. The samples are then centrifuged at 500 g for 5 min. 130 μL of supernatant of each sample is transferred to a new 96-well plate. The release of haemoglobin is quantified by measuring the absorbance at 540 nm of the supernatant by means of a microplate reader. The controls corresponding to the absence of haemolysis (white) and 100% haemolysis involve, respectively, the addition of 100 μL of PBS buffer and 100 μL of a 2% Triton X-100 solution to the wells containing 100 μL of saline erythrocyte solution (50 μL of PBS 2× and 50 μL of blood cell solution). Each measurement is carried out in triplicate.

CCCCCCCCCCCCN1CC(=O)N[C@@H](Cc2c[nH]c3ccccc23)C(=O)NN(Cc2cccc3ccccc23)CC(=O)N[C@@H](CCCCN)C(=O)NN(CCCCN)CC(=O)N[C@@H](CC2CCCCC2)C(=O)N1 [Chado, c[-Lys-azaβ^3Lys-Cha-azaβ^3Amy-Trp-azaβ^3(1)Nal-]]
activity on the Gram-negative bacteria [1]: no activity

[-(D)Lys-(L)Lys-(D)Leu-(L)Trp-(D)Leu-(L)Trp-]
concentration at which haemolytic (rabbit erythrocytes [2]): 80 µg/mL

CC1(C)S[C@@H]2[C@H](NC(=O)[C@H](N)c3ccccc3)C(=O)N2[C@H]1C(=O)O [Ampicillin]
concentration at which active (Streptococcus aureus): 1 µg/mL
concentration at which active (Salmonella thyphimurium): 1 µg/mL

CC(C)C[C@@H]1NC(=O)CN(Cc2cccc3ccccc23)NC(=O)[C@H](CC(C)C)NC(=O)CN(Cc2cccc3ccccc23)NC(=O)[C@H](CCCCN)NC(=O)CN(CCCCN)NC1=O [NafNaf, c[-Leu-azaβ^3Lys-Lys-azaβ^3(1)Nal-Leu-azaβ^3(1)Nal-]]
CC50 [3]: ~40 µg/mL (≈ 43.4 µM)
cytotoxic effect (hamster cells (CHO-K1)): no cytotoxic effect
LD50 ([4]; ascites 302-sp, compared with hamster cells): slightly lower
effect on the cell viability ([4]; at 10 μg/mL): slight effect
action on the erythrocytes (rabbit erythrocytes [5]; at 20 μg/mL): no action
haemolytic activity (rabbit erythrocytes [5]; at the concentrations at which it is bactericidal): no haemolytic activity
haemolytic activity (sheep erythrocytes): no significant haemolytic activity

CC(C)C[C@@H]1NC(=O)CN(Cc2ccc(F)c3ccccc23)NC(=O)[C@H](CC(C)C)NC(=O)CN(Cc2cccc3ccccc23)NC(=O)[C@H](CCCCN)NC(=O)CN(CCCCN)NC1=O [4Fluo1Naf, c[-Leu-azaβ^3Lys-Lys-azaβ^3(1)-Nal-Leu-azaβ^3(4F-1)Nal-]]
haemolytic activity (sheep erythrocytes): no significant haemolytic activity

N=C(N)NCCC[C@@H]1NC(=O)CN(CC2CCCCC2)NC(=O)[C@H](Cc2c[nH]c3ccccc23)NC(=O)CN(Cc2ccc(F)cc2)NC(=O)[C@H](CC2CCCCC2)NC(=O)CN(CCCCN)NC1=O [FluoKil, c[-Arg-azaβ^3Lys-Cha-azaβ^3(4)Fpa-Trp-azaβ^3Cha-]]
haemolytic activity (sheep erythrocytes): no significant haemolytic activity

Source: patent publication US8603968B2, “Cyclic peptides comprising at least one aza-β3-aminoacyl residue and their uses” (Centre National de la Recherche Scientifique, priority 2007, dated 2013)
